# Read-outs that look alike come from different tables or passages of the source.
# Key:
# Vero cells = assay: MTT colorimetric cell toxicity assay; type: cell-based, African green monkey
# Experimental: Cell toxicity of the tolans 4,4′-dihydroxytolan (“Tolan-5”), 3,4′,5-trihydroxytolan (“Tolan-10”) and 4-hydroxy-4′-trifluoromethyltolan (“Tolan-11”) was determined using an MTT assay. In this assay, cells are exposed to MTT, 3-(4,5-dimethylthiazol-2-yl)-2,5-diphenyltetrazolium bromide, which is taken into the cells and reduced by mitochondrial dehydrogenase to a purple formazan, a large molecule which is unable to pass through intact cell membranes, and therefore accumulates in healthy cells. The ability of cells to reduce MTT is an indication of mitochondrial integrity and activity, which may be interpreted as a measure of viability. Solubilization of the cells results in the liberation of the product which can readily be detected spectrophotometrically.
# Various concentrations of Tolan-5, Tolan-10 and Tolan-11 were added to 96 well tissue culture plates that had been seeded with Vero cells. The plates were then incubated at 37° C. in 5% CO2/95% air for 24, 48 and 72 hours. At the end of each time point, 50 μl of MTT (1 mg/ml) was added to the tissue culture plates which were then incubated for an additional four hours. At the end of that time, dimethyl sulfoxide (DMSO) was added to dissolve the cells and formazan, and the plates were read spectrophotometrically at 540 nm. […] Presented in Table I below are the toxicity results for Tolan-5, Tolan-10, and Tolan-11 measured at 24, 48 and 72 hours of treatment.
# HSV-1 [1] = assay: Inhibition of HSV-1 replication in vitro, plaque assay (Example 9); type: cell-based; conditions: for HSV-1 production: Vero cells, moi 1, up to 72 hours
# Experimental: Tissue culture cells were infected with HSV-1 and incubated in solutions containing Tolan-5, Tolan-10 and Tolan-11. The concentrations used ranged from one-half to three-quarters of the calculated CD50 for the respective tolan at 48 hours of treatment. Specifically, Vero cells were infected with HSV-1 at a multiplicity of infection of one for one hour. At the end of that time, the cultures were rinsed with media and fresh media containing various concentration of the respective tolan were added. Infected control cultures were incubated in media lacking hydroxylated tolan. At 1, 24, 48, and 72 hours after infection, samples were frozen at −70° C. until assayed for new virus production. Virus production was quantified by the plaque assay for each time point of infection. The results, which are expressed as plaque forming units per milliliter (pfu/ml).
# Escherichia coli = assay: Growth inhibition on agar plates; type: cell-based
# Experimental: (§1) Various concentrations of the trihydroxytolan Tolan-10 were incorporated into chocolate agar plates that were prepared using standard procedures. The trihydroxylated tolan was first dissolved in DMSO and medium and then added to liquid chocolate agar, which was then poured into petri plates and allowed to solidify. The highest concentration of DMSO in the agar was 0.5%. Control plates containing chocolate agar and DMSO at a final concentration of 0.5% were also prepared.
# (§2) 10 μl aliquots of the suspension were spread evenly across the surface of solidified control chocolate agar lacking tolan and the surface of solidified chocolate agar containing Tolan-10 at final concentrations ranging from 1 to 125 μg/ml. Thereafter, the agar plates were incubated at 37° C. with or without 5% CO2. All plates were visually examined for growth of the bacterium 24 hours later to determine the concentration of the tri-hydroxylated tolan that inhibits growth by 50% (MIC50) as well as the concentration which inhibits any visible growth (MIC100).
# (§3) The effect of the same concentrations of Tolan-10 on the growth of Escherichia coli, Staphylococcus aureus, Streptococcus pyogenes, Pseudomonas aeruginosa, Neisseria meningiditis and Candida albicans was also determined. […] The IC50 value of the tri-hydroxylated tolan for this bacterium at 24 hours of treatment was 50 μg/ ml and the IC100 value was 100 μg/ml. In contrast, Tolan 10, at the highest concentration tested, had no effect on the other microorganisms listed.
# Staphylococcus aureus = assay: Growth inhibition on agar plates; type: cell-based
# Experimental: as §1, §2, §3
# Streptococcus pyogenes = assay: Growth inhibition on agar plates; type: cell-based
# Experimental: as §1, §2, §3
# Pseudomonas aeruginosa = assay: Growth inhibition on agar plates; type: cell-based
# Experimental: as §1, §2, §3
# Candida albicans = assay: Growth inhibition on agar plates; type: cell-based
# Experimental: as §1, §2, §3
# Neisseria meningiditis = assay: Growth inhibition on agar plates; type: cell-based
# Experimental: as §1, §2, §3
# [2] = system: Neisseria gonorrhea CDC 98; assay: Growth inhibition on chocolate agar plates; type: cell-based
# Experimental: as §1
# Neisseria gonorrhea CDC 98 was obtained from Difco Laboratories. The authenticity of the bacterium was confirmed utilizing standard microbiological techniques of identification. Cultures of the bacterial isolate were inoculated onto fresh plates of solidified chocolate agar and then 24 hours later, a suspension was made from isolated colonies.
# as §2
# HSV-1 [3] = assay: HSV-1 skin scratch infection in hairless mice, topical treatment (Example 10); type: in vivo, SKH-1 hairless mice; conditions: for severity of HSV lesions: topical, three times a day for five days, versus untreated or DMSO only; for animals that perished within 11 days after infection: controls 50% died
# Experimental: Female SKH-1 hairless mice 4–5 weeks old were lightly anesthetized and a scratch approximately 2–3 mm long and 0.25 mm deep was made on the lateral dorsal aspect of the neck. The scratch was infected with 10^6 plaque forming units of HSV-1. One hour later, the infected scratch area was treated with a 5% or 10% solution of Tolan-10 in DMSO. This treatment was repeated three times a day for five days. There were at least six mice in each treatment group. Untreated mice and mice treated with DMSO only were used as controls. Beginning on day 1 and continuing for 10–11 days, the scratch site was examined daily for evidence of an HSV infection and scored according to the following schedule: • 0=no visible change on skin by scratch • 1+=papules around scratch • 2+=papules around scratch ulcerate with scab formation • 3+=ulcerative zosterform spread along peripheral nerves to flank of animal • 4+=ulcerative lesions open on flank • 5+=death/sacrifice The data was grouped according to treatment and statistically analyzed for significance.
# HSV-1 [4] = assay: HSV-1 plaque assay, infected Vero cells, moi 1 (Example 3); type: cell-based; conditions: 50 μM, data not shown
# Experimental: Cultures of African green monkey kidney cells (Vero) cells, obtained from the American Type Culture Collection, Rockville, Md. were grown to confluence in Medium 199 supplemented with 5% fetal bovine serum, 0.075% NaHCO3, and 50 μg/ml gentamycin sulfate in 25 cm^2 tissue culture flasks. Cells were infected with HSV-1 at a multiplicity of infection (moi) of one and incubated at room temperature for one hour to allow for virus attachment to and penetration of the cell. Under these conditions, approximately half of the cells are infected with virus. Thereafter, the cultures were rinsed three time with media and incubated in medium containing 50 μM or 75 μM 4, 4′-dihydroxytolan prepared in 0.2% dimethyl-sulfoxide (DMSO). Controls were treated identically, but were incubated without the dihyroxylated tolan. For purposes of comparison, HSV cell were also inoculated in the presence of 52.5 μM 4,4′-dihydroxystilbene. Due to the higher cell toxicity of the stilbene, cells were not incubated in the presence of 75 μM dihydroxystilbene.
# Upon addition of the medium to the cultures and at 24 hours time periods thereafter, i.e., 0 hours, 24 hours, 48 hours, and 72 hours after addition of the drug, cells and medium were frozen at −70° C. Samples were then thawed, sonicated and titrated on Vero cells to determine the number of plaque forming units (pfu's) of virus produced by each culture.
smiles,measurement,setting,value
"Oc1ccc(C#Cc2cc(O)cc(O)c2)cc1 [Tolan-10, 3,4′,5-trihydroxytolan]",toxicity (in words),Vero cells,very little toxicity
same,CD50,Vero cells; 24 hours,>200 µM
same,CD50,Vero cells; 48 hours,>200 µM
same,CD50,Vero cells; 72 hours,>200 µM
same,estimated CD50,Vero cells; summary of Table 1,> 200 μm
same,effectiveness against the virus over concentrations,HSV-1 [1]; 350 μm to 175 μm,equally effective against the virus at all concentrations
same,HSV-1 production,HSV-1 [1],inhibited HSV-1 production
same,IC100,Escherichia coli; E. coli,>125 mg/L
same,IC50,"Escherichia coli; Escherichia coli, E. coli",> 125 µg/mL
same,effect on growth,Escherichia coli; highest concentration tested,no effect
same,IC100,Staphylococcus aureus; S. aureus,>125 mg/L
same,IC50,"Staphylococcus aureus; Staphylococcus aureus, S. aureus",> 125 µg/mL
same,effect on growth,Staphylococcus aureus; highest concentration tested,no effect
same,IC100,Streptococcus pyogenes; S. pyogenes,>125 mg/L
same,IC50,"Streptococcus pyogenes; Streptococcus pyogenes, S. pyogenes",> 125 µg/mL
same,effect on growth,Streptococcus pyogenes; highest concentration tested,no effect
same,IC100,Pseudomonas aeruginosa; P. aeruginosa,>125 mg/L
same,IC50,"Pseudomonas aeruginosa; Pseudomonas aeruginosa, P. aeruginosa",> 125 µg/mL
same,effect on growth,Pseudomonas aeruginosa; highest concentration tested,no effect
same,IC100,Candida albicans; C. albicans,>125 mg/L
same,IC50,"Candida albicans; Candida albicans, C. albicans",> 125 µg/mL
same,effect on growth,Candida albicans; highest concentration tested,no effect
same,IC50,"Neisseria meningiditis; Neisseria, N. meningitides",> 125 µg/mL
same,effect on growth,Neisseria meningiditis; highest concentration tested,no effect
same,IC100 value,[2]; 24 hours of treatment,100 µg/mL
same,IC100,"[2]; N. gonorrhoeae, agar, 24 hours",100 mg/L
same,IC50,"[2]; N. gonorrhoeae, agar, 24 hours, read-out: IC50",50 µg/mL
same,IC50,"[2]; Neisseria, CDC98, 24 hours of treatment, read-out: IC50 value",50 µg/mL
same,selectivity of growth inhibition,[2]; versus the other microorganisms tested,selectively inhibited
same,severity of HSV lesions,HSV-1 [3]; 5% solution in DMSO,significantly reduced the severity of HSV lesions
same,animals that perished within 11 days after infection,HSV-1 [3]; 5%,none
same,severity of HSV lesions,HSV-1 [3]; 10% solution in DMSO,significantly reduced the severity of HSV lesions
same,animals that perished within 11 days after infection,HSV-1 [3]; 10%,none
same,effectiveness of 10% compared with 5%,"HSV-1 [3]; particularly days 6–10, not significantly different",slightly more effective than 5% Tolan-10
"Oc1ccc(C#Cc2ccc(C(F)(F)F)cc2)cc1 [Tolan-11, 4-hydroxy-4′-trifluoromethyltolan]",toxicity (in words),Vero cells,more toxic than the other hydroxylated tolans
same,CD50,Vero cells; 24 hours,72.1 µM
same,CD50,Vero cells; 48 hours,48.2 µM
same,CD50,Vero cells; 72 hours,47.1 µM
same,HSV-1 production,HSV-1 [1],inhibited HSV-1 production
same,effect on HSV-1 production,HSV-1 [1]; concentration of less than 48 μm,little to no effect
"Oc1ccc(C=Cc2ccc(O)cc2)cc1 [4,4′-dihydroxystilbene, reference compound]",effect on virus production,HSV-1 [4],no effect

# — patent US7094809B2, “Method of treating subject infected with Neisseria gonorrhea” (Northeastern Ohio Universities College of Medicine, priority 2000, dated 2006)
